The record followed here is US12331026B2 (NiKang Therapeutics, Inc., priority 2022, dated 2025).

The target in this test is T1, CDK2 (Homo sapiens, UniProt P24941).
T1 construct: endogenous in cells; host or cells: OVCAR3 cells
Put plainly: Phospho-RB measurement in OVCAR3 cells (HTRF phospho-RB S807/811). The class given is cell-based. Conditions: phosphorylation of RB protein at S807/811, HTRF, 24 h compound treatment, 0.3 to 10,000 nM, read-out: pRb (uM). In outline:
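IC50 values come from four-parameter logistic fits of the DMSO-normalised 665/620 nm TR-FRET ratio for phospho-RB (S807/811). Antibody detection ran 4 h at room temperature.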
On the technique in general: In TR-FRET formats the signal depends on donor and acceptor labels being close together.
For the compound `O=S1(=O)C[C@@H]2[C@H](C1)[C@@H]2Nc1nccc(-c2sc(N3C4CCC3CN(C3CC(F)(F)C3)C4)nc2-c2cccc(NS(=O)(=O)c3c(F)cccc3F)c2F)n1` [Example 106, N-(3-(2-(3-(3,3-difluorocyclobutyl)-3,8-diazabicyclo[3.2.1]octan-8-yl)-5-(2-(((1R,5S,6s)-3,3-dioxido-3-thiabicyclo[3.1.0]hexan-6-yl)amino)pyrimidin-4-yl)thiazol-4-yl)-2-fluorophenyl)-2,6-difluorobenzenesulfonamide], the IC50 came to 0.68 µM. The value for `O=S1(=O)CC2(CC(Nc3nccc(-c4sc(C56CCC(CC5)C6)nc4-c4cccc(NS(=O)(=O)c5c(F)cccc5F)c4F)n3)C2)C1` [Example 9, N-(3-(2-(bicyclo[2.2.1]heptan-1-yl)-5-(2-((2,2-dioxido-2-thiaspiro[3.3]heptan-6-yl)amino)pyrimidin-4-yl)thiazol-4-yl)-2-fluorophenyl)-2,6-difluorobenzenesulfonamide] was 0.1 µM; that for `O=S1(=O)CC2(CC(Nc3nccc(-c4sc(C56CCC(CC5)CC6)nc4-c4cccc(NS(=O)(=O)c5c(F)cccc5F)c4F)n3)C2)C1` [Example 10, N-(3-(2-(bicyclo[2.2.2]octan-1-yl)-5-(2-((2,2-dioxido-2-thiaspiro[3.3]heptan-6-yl)amino)pyrimidin-4-yl)thiazol-4-yl)-2-fluorophenyl)-2,6-difluorobenzenesulfonamide] was 0.055 µM. To `CN(C)C1CC2CCC(C1)N2c1nc(-c2cccc(NS(=O)(=O)c3c(F)cccc3F)c2F)c(-c2ccnc(NC3CC4(C3)CS(=O)(=O)C4)n2)s1` (centres unmarked) [Example 25, N-(3-(2-(3-(dimethylamino)-8-azabicyclo[3.2.1]octan-8-yl)-5-(2-((2,2-dioxido-2-thiaspiro[3.3]heptan-6-yl)amino)pyrimidin-4-yl)thiazol-4-yl)-2-fluorophenyl)-2,6-difluorobenzenesulfonamide] belongs 1.55 µM. The value for `CS(=O)(=O)[C@H]1CC[C@H](Nc2nccc(-c3sc(C45CC(C(F)(F)F)(C4)C5)nc3-c3cccc(NS(=O)(=O)c4c(F)cccc4C(F)(F)F)c3F)n2)CC1` [Example 35, 2-fluoro-N-(2-fluoro-3-(5-(2-(((1r,4r)-4-(methylsulfonyl)-cyclohexyl)amino)pyrimidin-4-yl)-2-(3-(trifluoromethyl)-bicyclo[1.1.1]pentan-1-yl)thiazol-4-yl)phenyl)-6-(trifluoromethyl)-benzenesulfonamide] was 0.29 µM; that for `COc1cccc(F)c1S(=O)(=O)Nc1cccc(-c2nc(C34CC(C3)C4)sc2-c2ccnc(NC3CC4(C3)CS(=O)(=O)C4)n2)c1F` [Example 55, N-(3-(2-(bicyclo[1.1.1]pentan-1-yl)-5-(2-((2,2-dioxido-2-thiaspiro[3.3]heptan-6-yl)amino)pyrimidin-4-yl)thiazol-4-yl)-2-fluorophenyl)-2-fluoro-6-methoxybenzenesulfonamide] was 1.35 µM.

Regarding `CC1CCC(C)N1c1nc(-c2cccc(NS(=O)(=O)c3c(F)cccc3F)c2F)c(-c2ccnc(NC3CC4(C3)CS(=O)(=O)C4)n2)s1` (centres unmarked) [Example 65, N-(3-(2-(2,5-dimethylpyrrolidin-1-yl)-5-(2-((2,2-dioxido-2-thiaspiro[3.3]heptan-6-yl)amino)pyrimidin-4-yl)thiazol-4-yl)-2-fluorophenyl)-2,6-difluorobenzenesulfonamide], the IC50 worked out at 0.39 µM. To `CC1CN(C)CC(C)N1c1nc(-c2cccc(NS(=O)(=O)c3c(F)cccc3F)c2F)c(-c2ccnc(NC3CC4(C3)CS(=O)(=O)C4)n2)s1` (centres unmarked) [Example 53, N-(3-(5-(2-((2,2-dioxido-2-thiaspiro[3.3]heptan-6-yl)amino)-pyrimidin-4-yl)-2-(2,4,6-trimethylpiperazin-1-yl)thiazol-4-yl)-2-fluorophenyl)-2,6-difluorobenzenesulfonamide] belongs 0.04 µM; to `CC1(C)CCN1c1nc(-c2cccc(NS(=O)(=O)c3c(F)cccc3F)c2F)c(-c2ccnc(NC3CC4(C3)CS(=O)(=O)C4)n2)s1` [Example 29, N-(3-(2-(2,2-dimethylazetidin-1-yl)-5-(2-((2,2-dioxido-2-thiaspiro[3.3]heptan-6-yl)amino)pyrimidin-4-yl)thiazol-4-yl)-2-fluorophenyl)-2,6-difluorobenzenesulfonamide], 0.27 µM; to `O=S1(=O)CC2(CC(Nc3nccc(-c4sc(N5C6CCC5CN(Cc5ccccc5)C6)nc4-c4cccc(NS(=O)(=O)c5c(F)cccc5F)c4F)n3)C2)C1` [Example 40, N-(3-(2-(3-benzyl-3,8-diazabicyclo[3.2.1]octan-8-yl)-5-(2-((2,2-dioxido-2-thiaspiro[3.3]heptan-6-yl)amino)pyrimidin-4-yl)thiazol-4-yl)-2-fluorophenyl)-2,6-difluorobenzenesulfonamide], 1.7 µM. To `O=S1(=O)C[C@@H]2[C@H](C1)[C@H]2Nc1nccc(-c2sc(C3(C(F)F)CC3)nc2-c2cccc(NS(=O)(=O)c3c(F)cccc3C(F)(F)F)c2F)n1` [Example 72, N-(3-(2-(1-(difluoromethyl)cyclopropyl)-5-(2-(((1R,5S,6r)-3,3-dioxido-3-thiabicyclo[3.1.0]hexan-6-yl)amino)pyrimidin-4-yl)thiazol-4-yl)-2-fluorophenyl)-2-fluoro-6-(trifluoromethyl)benzenesulfonamide] belongs 0.061 µM. To `C[C@H]1COC[C@H](C)N1c1nc(-c2cccc(NS(=O)(=O)c3c(F)cccc3C(F)(F)F)c2F)c(-c2ccnc(NC3CC4(C3)CS(=O)(=O)C4)n2)s1` [Example 79, N-(3-(2-((3S,5S)-3,5-dimethylmorpholino)-5-(2-((2,2-dioxido-2-thiaspiro[3.3]heptan-6-yl)amino)pyrimidin-4-yl)thiazol-4-yl)-2-fluorophenyl)-2-fluoro-6-(trifluoromethyl)benzenesulfonamide] belongs 0.06 µM.

For the compound `CN1CC2CCC(C1)N2c1nc(-c2cccc(NS(=O)(=O)c3c(F)cccc3C(F)(F)F)c2F)c(-c2ccnc(NC3CC4(C3)CS(=O)(=O)C4)n2)s1` [Example 51, N-(3-(5-(2-((2,2-dioxido-2-thiaspiro[3.3]heptan-6-yl)amino)-pyrimidin-4-yl)-2-(3-methyl-3,8-diazabicyclo[3.2.1]octan-8-yl)thiazol-4-yl)-2-fluorophenyl)-2-fluoro-6-(trifluoromethyl)-benzenesulfonamide], the IC50 is 0.04 µM. To `CC1(C)CCN1c1nc(-c2cccc(NS(=O)(=O)c3c(F)cccc3C(F)(F)F)c2F)c(-c2ccnc(N[C@H]3[C@@H]4CS(=O)(=O)C[C@@H]43)n2)s1` [Example 121, N-(3-(2-(2,2-dimethylazetidin-1-yl)-5-(2-(((1R,5S,6r)-3,3-dioxido-3-thiabicyclo[3.1.0]hexan-6-yl)amino)pyrimidin-4-yl)thiazol-4-yl)-2-fluorophenyl)-2-fluoro-6-(trifluoromethyl)benzenesulfonamide] belongs 0.05 µM.

For the compound `O=S1(=O)CC2(CC(Nc3nccc(-c4sc(N5C6CCC5CN(C5COC5)C6)nc4-c4cccc(NS(=O)(=O)c5c(F)cccc5F)c4F)n3)C2)C1` [Example 144, N-(3-(5-(2-((2,2-dioxido-2-thiaspiro[3.3]heptan-6-yl)amino)-pyrimidin-4-yl)-2-(3-(oxetan-3-yl)-3,8-diazabicyclo[3.2.1]octan-8-yl)thiazol-4-yl)-2-fluorophenyl)-2,6-difluorobenzenesulfonamide], the IC50 is 0.24 µM. On to `O=S1(=O)C[C@@H]2[C@H](C1)[C@@H]2Nc1nccc(-c2sc(N3C4CCC3CN(C3CC(F)(F)C3)C4)nc2-c2cccc(NS(=O)(=O)c3c(F)cccc3C(F)(F)F)c2F)n1` [Example 108, N-(3-(2-(3-(3,3-difluorocyclobutyl)-3,8-diazabicyclo[3.2.1]octan-8-yl)-5-(2-(((1R,5S,6s)-3,3-dioxido-3-thiabicyclo[3.1.0]hexan-6-yl)amino)pyrimidin-4-yl)thiazol-4-yl)-2-fluorophenyl)-2-fluoro-6-(trifluoromethyl)benzenesulfonamide], for which the IC50 turned out to be 0.1 µM. The value for `O=S1(=O)CC2(CC(Nc3nccc(-c4sc(N5C6CCC5CN(CCC(F)(F)F)C6)nc4-c4cccc(NS(=O)(=O)c5c(F)cccc5F)c4F)n3)C2)C1` [Example 142, N-(3-(5-(2-((2,2-dioxido-2-thiaspiro[3.3]heptan-6-yl)amino)-pyrimidin-4-yl)-2-(3-(3,3,3-trifluoropropyl)-3,8-diazabicyclo-[3.2.1]octan-8-yl)thiazol-4-yl)-2-fluorophenyl)-2,6-difluorobenzenesulfonamide] was 0.32 µM. To `O=S1(=O)C[C@@H]2[C@H](C1)[C@H]2Nc1nccc(-c2sc(N3C4CCC3CN(C3CC3)C4)nc2-c2cccc(NS(=O)(=O)c3c(F)cccc3F)c2F)n1` [Example 127, N-(3-(2-(3-cyclopropyl-3,8-diazabicyclo[3.2.1]octan-8-yl)-5-(2-(((1R,5S,6r)-3,3-dioxido-3-thiabicyclo[3.1.0]hexan-6-yl)amino)-pyrimidin-4-yl)thiazol-4-yl)-2-fluorophenyl)-2,6-difluorobenzene-sulfonamide] belongs 0.06 µM. To `O=C1CC2CCC(C1)N2c1nc(-c2cccc(NS(=O)(=O)c3c(F)cccc3F)c2F)c(-c2ccnc(NC3CC4(C3)CS(=O)(=O)C4)n2)s1` [Example 17, N-(3-(5-(2-((2,2-dioxido-2-thiaspiro[3.3]heptan-6-yl)amino)pyrimidin-4-yl)-2-(3-oxo-8-azabicyclo[3.2.1]octan-8-yl)thiazol-4-yl)-2-fluorophenyl)-2,6-difluorobenzenesulfonamide] belongs 0.48 µM; to `C[C@@H]1CNC[C@@H](C)N1c1nc(-c2cccc(NS(=O)(=O)c3c(F)cccc3F)c2F)c(-c2ccnc(NC3CC4(C3)CS(=O)(=O)C4)n2)s1` [Example 59, N-(3-(2-((2R,6R)-2,6-dimethylpiperazin-1-yl)-5-(2-((2,2-dioxido-2-thiaspiro[3.3]heptan-6-yl)amino)pyrimidin-4-yl)thiazol-4-yl)-2-fluorophenyl)-2,6-difluorobenzenesulfonamide], 3.01 µM.
